From US20220175768A1, “FGFR TYROSINE KINASE INHIBITORS FOR THE TREATMENT OF UROTHELIAL CARCINOMA” (Janssen Pharmaceutica NV, priority 2019, published 2022)

[1] = 10 mg intermittent, regimen 1 (n = 33)

Method: Study treatment was administered on 28-day cycles. Prior to interim analysis 1, there were 2 treatment regimens. Patients were randomized 1:1 to 28-day cycles to the following 2 regimens until a regimen was selected for further study: Regimen 1 (10 mg once daily intermittent (7 days on/7 days); Regimen 2 (6 mg once daily continuous). Randomization was stratified according to performance status (0 to 1 vs. 2), hemoglobin value (<10 vs. ≥10 g per dl), FGFR alteration type (mutation vs. fusion), prior treatment status (chemotherapy-resistant vs. chemotherapy naïve), and disease distribution (presence or absence of visceral [liver, lung, bone] metastases). Starting dose selection was based on phase 1 efficacy and tolerability.
Thus, after interim analysis, this became a single-arm study. […] Treatment continued until disease progression or unacceptable adverse event(s) per investigator.
All objective responses required confirmation by an additional investigator assessment within 4 to 6 weeks of first assessment. Disease evaluations for regimen 3 were also performed by an independent radiographic review committee. […] Safety was evaluated based on clinical laboratory tests, physical exams, electrocardiograms, and ophthalmology examinations. Adverse events and abnormalities were assessed by investigator and graded per NCI CTCAE v.4.0
Prophylactic measures were taken to minimize risk of common adverse events related to FGFR inhibition. To reduce risk of hyperphosphatemia, a low-phosphate diet was recommended for all patients (600 to 800 mg of dietary phosphate intake per day). To reduce the risk of skin effects, the application of alcohol-free emollient moisturizing cream and avoidance of unnecessary exposure to sunlight, soap, perfumed products, and hot baths was recommended. Patients were asked to keep their fingers and toes clean and nails trimmed to reduce risk of nail effects.
Additional ophthalmology examinations were performed if clinically indicated.

## COc1cc(OC)cc(N(CCNC(C)C)c2ccc3ncc(-c4cnn(C)c4)nc3c2)c1 [erdafitinib, N-(3,5-dimethoxy-phenyl)-N′-(1-methylethyl)-N-[3-(1-methyl-1H-pyrazol-4-yl)quinoxalin-6-yl]ethane-1,2-diamine]
[1]
  Patients with Hematuria, Grade ≥3: 0 no. (%)
  Patients with Hyperphosphatemia, Any grade: 16 (48) no. (%)
  Patients with Hyperphosphatemia, Grade 1: 15 (46) no. (%)
  Patients with Hyperphosphatemia, Grade 2: 1 (3) no. (%)
  Patients with Hyperphosphatemia, Grade ≥3: 0 no. (%)
  Patients with Hypomagnesemia, Any grade: 2 (6) no. (%)
  Patients with Hypomagnesemia, Grade 1: 2 (6) no. (%)
  Patients with Hypomagnesemia, Grade 2: 0 no. (%)
  Patients with Hypomagnesemia, Grade ≥3: 0 no. (%)
  Patients with Hyponatremia, Any grade: 2 (6) no. (%)
  Patients with Hyponatremia, Grade 1: 0 no. (%)
  Patients with Hyponatremia, Grade 2: 0 no. (%)
  Patients with Hyponatremia, Grade ≥3: 2 (6) no. (%)
  Patients with Insomnia, Any grade: 3 (9) no. (%)
  Patients with Insomnia, Grade 1: 0 no. (%)
  Patients with Insomnia, Grade 2: 3 (9) no. (%)
  Patients with Insomnia, Grade ≥3: 0 no. (%)
  Patients with Lacrimation increased, Any grade: 6 (18) no. (%)
  Patients with Lacrimation increased, Grade 1: 5 (15) no. (%)
  Patients with Lacrimation increased, Grade 2: 1 (3) no. (%)
  Patients with Lacrimation increased, Grade ≥3: 0 no. (%)
  Patients with Nail dystrophy, Any grade: 2 (6) no. (%)
  Patients with Nail dystrophy, Grade 1: 2 (6) no. (%)
  Patients with Nail dystrophy, Grade 2: 0 no. (%)
  Patients with Nail dystrophy, Grade ≥3: 0 no. (%)
  Patients with Nausea, Any grade: 5 (15) no. (%)
  Patients with Nausea, Grade 1: 3 (9) no. (%)
  Patients with Nausea, Grade 2: 2 (6) no. (%)
  Patients with Nausea, Grade ≥3: 0 no. (%)
  Patients with Onycholysis, Any grade: 7 (21) no. (%)
  Patients with Onycholysis, Grade 1: 3 (9) no. (%)
  Patients with Onycholysis, Grade 2: 3 (9) no. (%)
  Patients with Onycholysis, Grade ≥3: 1 (3) no. (%)
  Patients with Onychomadesis, Any grade: 1 (3) no. (%)
  Patients with Onychomadesis, Grade 1: 1 (3) no. (%)
  Patients with Onychomadesis, Grade 2: 0 no. (%)
  Patients with Onychomadesis, Grade ≥3: 0 no. (%)
  Patients with Oropharyngeal pain, Any grade: 0 no. (%)
  Patients with Oropharyngeal pain, Grade 1: 0 no. (%)
  Patients with Oropharyngeal pain, Grade 2: 0 no. (%)
  Patients with Oropharyngeal pain, Grade ≥3: 0 no. (%)
  Patients with Pain in extremity, Any grade: 5 (15) no. (%)
  Patients with Pain in extremity, Grade 1: 3 (9) no. (%)
  Patients with Pain in extremity, Grade 2: 1 (3) no. (%)
  Patients with Pain in extremity, Grade ≥3: 1 (3) no. (%)
  Patients with Paronychia, Any grade: 2 (6) no. (%)
  Patients with Paronychia, Grade 1: 0 no. (%)
  Patients with Paronychia, Grade 2: 2 (6) no. (%)
  Patients with Paronychia, Grade ≥3: 0 no. (%)
  Patients with Peripheral edema, Any grade: 5 (15) no. (%)
  Patients with Peripheral edema, Grade 1: 1 (3) no. (%)
  Patients with Peripheral edema, Grade 2: 4 (12) no. (%)
  Patients with Peripheral edema, Grade ≥3: 0 no. (%)
  Patients with Pyrexia, Any grade: 5 (15) no. (%)
  Patients with Pyrexia, Grade 1: 5 (15) no. (%)
  Patients with Pyrexia, Grade 2: 0 no. (%)
  Patients with Pyrexia, Grade ≥3: 0 no. (%)
  Patients with Retinal detachment, Any grade: 2 (6) no. (%)
  Patients with Retinal detachment, Grade 1: 1 (3) no. (%)
  Patients with Retinal detachment, Grade 2: 1 (3) no. (%)
  Patients with Retinal detachment, Grade ≥3: 0 no. (%)
  Patients with Stomatitis, Any grade: 16 (48) no. (%)
  Patients with Stomatitis, Grade 1: 9 (27) no. (%)
  Patients with Stomatitis, Grade 2: 6 (18) no. (%)
  Patients with Stomatitis, Grade ≥3: 1 (3) no. (%)
  Patients with Urinary tract infection, Any grade: 4 (12) no. (%)
  Patients with Urinary tract infection, Grade 1: 0 no. (%)
  Patients with Urinary tract infection, Grade 2: 2 (6) no. (%)
  Patients with Urinary tract infection, Grade ≥3: 2 (6) no. (%)
  Patients with Vision blurred, Any grade: 5 (15) no. (%)
  Patients with Vision blurred, Grade 1: 4 (12) no. (%)
  Patients with Vision blurred, Grade 2: 1 (3) no. (%)
  Patients with Vision blurred, Grade ≥3: 0 no. (%)
  Patients with Vomiting, Any grade: 9 (27) no. (%)
  Patients with Vomiting, Grade 1: 7 (21) no. (%)
  Patients with Vomiting, Grade 2: 2 (6) no. (%)
  Patients with Vomiting, Grade ≥3: 0 no. (%)
  Patients with Weight decreased, Any grade: 3 (9) no. (%)
  Patients with Weight decreased, Grade 1: 1 (3) no. (%)
  Patients with Weight decreased, Grade 2: 2 (6) no. (%)
  Patients with Weight decreased, Grade ≥3: 0 no. (%)
  Serious treatment-emergent adverse event: Nervous system disorders: 0 no.
  Serious treatment-emergent adverse event: Urinary tract infection: 0 no.
  Serious treatment-emergent adverse event: Urosepsis: 0 no.
  Treatment-related adverse event: Alopecia, Any grade: 3 (9) no. (%)
  Treatment-related adverse event: Alopecia, Grade 1: 1 (3) no. (%)
  Treatment-related adverse event: Alopecia, Grade 2: 2 (6) no. (%)
  Treatment-related adverse event: Alopecia, Grade ≥3: 0 no. (%)
  Treatment-related adverse event: Asthenia, Any grade: 6 (18) no. (%)
  Treatment-related adverse event: Asthenia, Grade 1: 2 (6) no. (%)
  Treatment-related adverse event: Asthenia, Grade 2: 2 (6) no. (%)
  Treatment-related adverse event: Asthenia, Grade ≥3: 2 (6) no. (%)
  Treatment-related adverse event: Conjunctivitis, Any grade: 4 (12) no. (%)
  Treatment-related adverse event: Conjunctivitis, Grade 1: 3 (9) no. (%)
  Treatment-related adverse event: Conjunctivitis, Grade 2: 1 (3) no. (%)
  Treatment-related adverse event: Conjunctivitis, Grade ≥3: 0 no. (%)
  Treatment-related adverse event: Decreased appetite, Any grade: 6 (18) no. (%)
  Treatment-related adverse event: Decreased appetite, Grade 1: 2 (6) no. (%)
  Treatment-related adverse event: Decreased appetite, Grade 2: 4 (12) no. (%)
  Treatment-related adverse event: Decreased appetite, Grade ≥3: 0 no. (%)
  Treatment-related adverse event: Diarrhea, Any grade: 13 (39) no. (%)
  Treatment-related adverse event: Diarrhea, Grade 1: 7 (21) no. (%)
  Treatment-related adverse event: Diarrhea, Grade 2: 5 (15) no. (%)
  Treatment-related adverse event: Diarrhea, Grade ≥3: 1 (3) no. (%)
  Treatment-related adverse event: Dry mouth, Any grade: 14 (42) no. (%)
  Treatment-related adverse event: Dry mouth, Grade 1: 13 (39) no. (%)
  Treatment-related adverse event: Dry mouth, Grade 2: 1 (3) no. (%)
  Treatment-related adverse event: Dry mouth, Grade ≥3: 0 no. (%)
  Treatment-related adverse event: Dry skin, Any grade: 8 (24) no. (%)
  Treatment-related adverse event: Dry skin, Grade 1: 7 (21) no. (%)
  Treatment-related adverse event: Dry skin, Grade 2: 1 (3) no. (%)
  Treatment-related adverse event: Dry skin, Grade ≥3: 0 no. (%)
  Treatment-related adverse event: Dysgeusia, Any grade: 10 (30) no. (%)
  Treatment-related adverse event: Dysgeusia, Grade 1: 7 (21) no. (%)
  Treatment-related adverse event: Dysgeusia, Grade 2: 3 (9) no. (%)
  Treatment-related adverse event: Dysgeusia, Grade ≥3: 0 no. (%)
  Treatment-related adverse event: Fatigue, Any grade: 4 (12) no. (%)
  Treatment-related adverse event: Fatigue, Grade 1: 2 (6) no. (%)
  Treatment-related adverse event: Fatigue, Grade 2: 2 (6) no. (%)
  Treatment-related adverse event: Fatigue, Grade ≥3: 0 no. (%)
  Treatment-related adverse event: Hand-foot syndrome, Any grade: 2 (6) no. (%)
  Treatment-related adverse event: Hand-foot syndrome, Grade 1: 0 no. (%)
  Treatment-related adverse event: Hand-foot syndrome, Grade 2: 2 (6) no. (%)
  Treatment-related adverse event: Hand-foot syndrome, Grade ≥3: 0 no. (%)
  Treatment-related adverse event: Hyperphosphatemia, Any grade: 15 (46) no. (%)
  Treatment-related adverse event: Hyperphosphatemia, Grade 1: 14 (42) no. (%)
  Treatment-related adverse event: Hyperphosphatemia, Grade 2: 1 (3) no. (%)
  Treatment-related adverse event: Hyperphosphatemia, Grade ≥3: 0 no. (%)
  Treatment-related adverse event: Lacrimation increased, Any grade: 4 (12) no. (%)
  Treatment-related adverse event: Lacrimation increased, Grade 1: 4 (12) no. (%)
  Treatment-related adverse event: Lacrimation increased, Grade 2: 0 no. (%)
  Treatment-related adverse event: Lacrimation increased, Grade ≥3: 0 no. (%)
  Treatment-related adverse event: Nausea, Any grade: 5 (15) no. (%)
  Treatment-related adverse event: Nausea, Grade 1: 3 (9) no. (%)
  Treatment-related adverse event: Nausea, Grade 2: 2 (6) no. (%)
  Treatment-related adverse event: Nausea, Grade ≥3: 0 no. (%)
  Treatment-related adverse event: Onycholysis, Any grade: 6 (18) no. (%)
  Treatment-related adverse event: Onycholysis, Grade 1: 2 (6) no. (%)
  Treatment-related adverse event: Onycholysis, Grade 2: 3 (9) no. (%)
  Treatment-related adverse event: Onycholysis, Grade ≥3: 1 (3) no. (%)
  Treatment-related adverse event: Onychomadesis, Any grade: 1 (3) no. (%)
  Treatment-related adverse event: Onychomadesis, Grade 1: 1 (3) no. (%)
  Treatment-related adverse event: Onychomadesis, Grade 2: 0 no. (%)
  Treatment-related adverse event: Onychomadesis, Grade ≥3: 0 no. (%)
  Treatment-related adverse event: Paronychia, Any grade: 2 (6) no. (%)
  Treatment-related adverse event: Paronychia, Grade 1: 0 no. (%)
  Treatment-related adverse event: Paronychia, Grade 2: 2 (6) no. (%)
  Treatment-related adverse event: Paronychia, Grade ≥3: 0 no. (%)
  Treatment-related adverse event: Retinal detachment, Any grade: 2 (6) no. (%)
  Treatment-related adverse event: Retinal detachment, Grade 1: 1 (3) no. (%)
  Treatment-related adverse event: Retinal detachment, Grade 2: 1 (3) no. (%)
  Treatment-related adverse event: Retinal detachment, Grade ≥3: 0 no. (%)
  Treatment-related adverse event: Stomatitis, Any grade: 16 (49) no. (%)
  Treatment-related adverse event: Stomatitis, Grade 1: 9 (27) no. (%)
  Treatment-related adverse event: Stomatitis, Grade 2: 6 (18) no. (%)
  Treatment-related adverse event: Stomatitis, Grade ≥3: 1 (3) no. (%)
  Treatment-related adverse event: Vision blurred, Any grade: 5 (15) no. (%)
  Treatment-related adverse event: Vision blurred, Grade 1: 4 (12) no. (%)
  Treatment-related adverse event: Vision blurred, Grade 2: 1 (3) no. (%)
  Treatment-related adverse event: Vision blurred, Grade ≥3: 0 no. (%)
41 patients of the 8 mg regimen uptitrated to 9 mg per day
  Patients who required ≥1 dose reduction: 59%
Regimen 3
  Hyperphosphatemia leading to dose reduction: 9%
  Hyperphosphatemia reported: 77%
  Patients discontinued due to treatment-emergent adverse events: 13%
  Patients who required dose reduction: 56%
  Stomatitis leading to dose reduction: 16%
  Treatment-emergent adverse events grade 3 or 4: 67%
All unresolved events were grade 1 or 2
  Central serious retinopathy events resolved: Seventy-six
In vivo
  Hyperphosphatemia managed by dose interruption: 23%
Normalized by cycle 5
  Time of peak phosphate elevation after erdafitinib initiation: 6 weeks
Overall trial population
  Patients with grade ≥3 treatment-emergent adverse events: 66%
Patients with eye disorders (n=62)
  Patients with grade 1 or 2 events among patients with eye disorders: 84%
